Source: US20250026752A1, “POSITIVE ALLOSTERIC MODULATORS OF THE MUSCARINIC ACETYLCHOLINE RECEPTOR M4” (Vanderbilt University, priority 2021, published 2025)
pEC50: −log10 of the molar value.

Target: T1, human mAChR M4 (Homo sapiens, UniProt P08173)
T1 construct: expressed in transfected cells; host or cells: CHO-K1 (ATCC), stably expressing hM4 and Gqi5
T1 sequence (P08173 1-479): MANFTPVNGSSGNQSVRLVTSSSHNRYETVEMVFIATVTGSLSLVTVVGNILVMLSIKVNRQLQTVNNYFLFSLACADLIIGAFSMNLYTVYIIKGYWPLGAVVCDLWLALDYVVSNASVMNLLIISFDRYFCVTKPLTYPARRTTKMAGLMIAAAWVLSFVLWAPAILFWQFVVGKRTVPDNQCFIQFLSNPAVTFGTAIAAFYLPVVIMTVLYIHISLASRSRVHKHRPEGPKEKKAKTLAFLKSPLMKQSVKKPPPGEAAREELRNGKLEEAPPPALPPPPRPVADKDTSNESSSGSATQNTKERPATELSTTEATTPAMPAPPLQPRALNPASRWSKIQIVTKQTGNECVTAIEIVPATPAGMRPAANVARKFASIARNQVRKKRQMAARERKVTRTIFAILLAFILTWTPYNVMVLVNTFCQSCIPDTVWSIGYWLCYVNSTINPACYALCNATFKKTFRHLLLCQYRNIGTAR
Assay: mAChR M4 cell-based functional assay: calcium flux (Fluo-4, FDSS), positive allosteric modulator activity on the EC20 acetylcholine response, hM4-Gqi5 CHO-K1 cells
Conditions: for Emax at 30 µM: CHO-K1, human M4, % ACh maximum at 30 μM; for pEC50: human M4, PAM activity on EC20 acetylcholine response, calcium flux, read-out: Human M4 EC50
Outline: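 Potentiation was taken as the concentration-dependent rise in the EC20 acetylcholine calcium response, fitted by a four-parameter logistic with EC20 as baseline. Fluo-4-loaded hM4-Gqi5 CHO-K1 cells received 11-point, threefold-diluted compound before acetylcholine at 144 s; FDSS read at 1 Hz.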

SMILES | Emax at 30 µM [%] | pEC50
Fc1cc2c(N3CCc4ncc(C(F)(F)F)cc4C3)nc(N3CCOCC3)nc2cc1Cl [Compound 209, 4-[7-chloro-6-fluoro-4-[3-(trifluoromethyl)-7,8-dihydro-5H-1,6-naphthyridin-6-yl]quinazolin-2-yl]morpholine] | 50 | < 5.00
Cn1nccc1Nc1cnc2c(c1)CN(c1nc(N3CCOC(C)(C)C3)nc3ccc(F)cc13)CC2 [Compound 214, 6-[2-(2,2-dimethylmorpholin-4-yl)-6-fluoro-quinazolin-4-yl]-N-(2-methylpyrazol-3-yl)-7,8-dihydro-5H-1,6-naphthyridin-3-amine] | 70 | 6.08
FC(F)(F)c1ccc2ncnc(N3CCc4ncc(N5CCOc6ncccc65)cc4C3)c2c1 [Compound 215, 1-(6-(6-(trifluoromethyl)quinazolin-4-yl)-5,6,7,8-tetrahydro-1,6-naphthyridin-3-yl)-2,3-dihydro-1H-pyrido[2,3-b][1,4]oxazine] | 107 | 5.79
Fc1ccc2ncnc(N3CCc4ncc(N5CCO[C@H](c6ccccc6)C5)cc4C3)c2c1 [Compound 216, (R)-4-(6-(6-fluoroquinazolin-4-yl)-5,6,7,8-tetrahydro-1,6-naphthyridin-3-yl)-2-phenylmorpholine] | 81 | 5.98
Cc1nc(N2CCc3ncc(N4CCO[C@H](c5ccccc5)C4)cc3C2)c2cc(F)ccc2n1 [Compound 217, (R)-4-(6-(6-fluoro-2-methylquinazolin-4-yl)-5,6,7,8-tetrahydro-1,6-naphthyridin-3-yl)-2-phenylmorpholine] | 84 | 5.77
Cc1nn(-c2cnc3c(c2)CN(c2ncnc4ccc(F)cc24)CC3)c2cccnc12 [Compound 218, 6-fluoro-4-(3-(3-methyl-1H-pyrazolo[4,3-b]pyridin-1-yl)-7,8-dihydro-1,6-naphthyridin-6(5H)-yl)quinazoline] | 73 | 6.24
Cc1nc2c(cc1N1CCOC(C)(C)C1)CN(c1ncnc3ccc(F)cc13)CC2 [Compound 219, 4-(6-(6-fluoroquinazolin-4-yl)-2-methyl-5,6,7,8-tetrahydro-1,6-naphthyridin-3-yl)-2,2-dimethylmorpholine] | 60 | 5.86
Fc1ccc2ncnc(N3CCc4ncc(N5CCO[C@@H](c6ccccc6)C5)cc4C3)c2c1 [Compound 220, (S)-4-(6-(6-fluoroquinazolin-4-yl)-5,6,7,8-tetrahydro-1,6-naphthyridin-3-yl)-2-phenylmorpholine] | 59 | 5.71
COc1ccc2nc(O)nc(N3CCc4ncc(C(F)(F)F)cc4C3)c2c1 [Compound 221, 6-methoxy-4-(3-(trifluoromethyl)-7,8-dihydro-1,6-naphthyiridin-6(5H)-yl)quinazolin-2-ol] | 44 | 5.83
Cc1nc(N2CCc3ncc(N4CCO[C@@H](c5ccccc5)C4)cc3C2)c2cc(F)ccc2n1 [Compound 222, (S)-4-(6-(6-fluoro-2-methylquinazolin-4-yl)-5,6,7,8-tetrahydro-1,6-naphthyridin-3-yl)-2-phenylmorpholine] | 50 | 5.46
Fc1ccc2ncnc(N3CCc4ncc(N5CCOC(c6ccccn6)C5)cc4C3)c2c1 (centres unmarked) [Compound 223, 4-(6-(6-fluoroquinazolin-4-yl)-5,6,7,8-tetrahydro-1,6-naphthyridin-3-yl)-2-(pyridin-2-yl)morpholine] | 65 | 6.17
Cc1nc(N2CCc3ncc(N4CCOC(c5ccccn5)C4)cc3C2)c2cc(F)ccc2n1 (centres unmarked) [Compound 224, 4-(6-(6-fluoro-2-methylquinazolin-4-yl)-5,6,7,8-tetrahydro-1,6-naphthyridin-3-yl)-2-(pyridin-2-yl)morpholine] | 72 | 6.03

Molecules with a higher pEC50, results first:

Emax at 30 µM [%] | pEC50 | SMILES
75 | 6.36 | Cc1ccc2nc(NC3CCOC3)nc(N3CCc4ncc(C(F)(F)F)cc4C3)c2c1 (centres unmarked) [Compound 207, 6-methyl-N-tetrahydrofuran-3-yl-4-[3-(trifluoromethyl)-7,8-dihydro-5H-1,6-naphthyridin-6-yl]quinazolin-2-amine]
76 | 6.41 | Cc1ccc2nc(NCC(C)(C)O)nc(N3CCc4ncc(C(F)(F)F)cc4C3)c2c1 [Compound 208, 2-methyl-1-[[6-methyl-4-[3-(trifluoromethyl)-7,8-dihydro-5H-1,6-naphthyridin-6-yl]quinazolin-2-yl]amino]propan-2-ol]
81 | 6.62 | Cn1nccc1Nc1cnc2c(c1)CN(c1nc(N3CCCC3)nc3ccc(F)cc13)CC2 [Compound 210, 6-(6-fluoro-2-pyrrolidin-1-yl-quinazolin-4-yl)-N-(2-methylpyrazol-3-yl)-7,8-dihydro-5H-1,6-naphthyridin-3-amine]
80 | 6.33 | CN1CCN(c2nc(N3CCc4ncc(Nc5ccnn5C)cc4C3)c3cc(F)ccc3n2)CC1 [Compound 211, 6-[6-fluoro-2-(4-methylpiperazin-1-yl)quinazolin-4-yl]-N-(2-methylpyrazol-3-yl)-7,8-dihydro-5H-1,6-naphthyridin-3-amine]
90 | 6.72 | Cn1nccc1Nc1cnc2c(c1)CN(c1nc(NCC(C)(C)O)nc3ccc(F)cc13)CC2 [Compound 212, 1-[[6-fluoro-4-[3-[(2-methylpyrazol-3-yl)amino]-7,8-dihydro-5H-1,6-naphthyridin-6-yl]quinazolin-2-yl]amino]-2-methyl-propan-2-ol]
86 | 6.31 | Cn1nccc1Nc1cnc2c(c1)CN(c1nc(NC3CCCOC3)nc3ccc(F)cc13)CC2 (centres unmarked) [Compound 213, 6-fluoro-4-[3-[(2-methylpyrazol-3-yl)amino]-7,8-dihydro-5H-1,6-naphthyridin-6-yl]-N-tetrahydropyran-3-yl-quinazolin-2-amine]
94 | 7.15 | CC1CN(c2cnc3c(c2)CN(c2ncnc4ccc(F)cc24)CC3)c2ccnn2C1 (centres unmarked) [Compound 225, 6-fluoro-4-(3-(6-methyl-6,7-dihydropyrazolo[1,5-a]pyrimidin-4(5H)-yl)-7,8-dihydro-1,6-naphthyridin-6(5H)-yl)quinazoline]
103 | 7.22 | Cc1cc2n(n1)CCCN2c1cnc2c(c1)CN(c1ncnc3ccc(F)cc13)CC2 [Compound 226, 6-fluoro-4-(3-(2-methyl-6,7-dihydropyrazolo[1,5-a]pyrimidin-4(5H)-yl)-7,8-dihydro-1,6-naphthyridin-6(5H)-yl)quinazoline]
75 | 7.10 | CC1CCN(c2cnc3c(c2)CN(c2ncnc4ccc(F)cc24)CC3)c2ccnn21 (centres unmarked) [Compound 227, 6-fluoro-4-(3-(7-methyl-6,7-dihydropyrazolo[1,5-a]pyrimidin-4(5H)-yl)-7,8-dihydro-1,6-naphthyridin-6(5H)-yl)quinazoline]
97 | 7.40 | [2H]c1nc2c(cc1N1CCOC(C)(C)C1)CN(c1ncnc3ccc(F)cc13)CC2 [Compound 228, 4-(6-(6-fluoroquinazolin-4-yl)-5,6,7,8-tetrahydro-1,6-naphthyridin-3-yl-2-d)-2,2-dimethylmorpholine]
